Source: patent US20240423979A1, “THERAPEUTICALLY EFFECTIVE COMBINATION OF A FLT3 INHIBITOR AND A BCL-2 INHIBITOR FOR THE TREATMENT OF ACUTE MYELOID LEUKEMIA” (Hanmi Pharm. Co., Ltd., priority 2021, published 2024)

Experiments:
[1] = tested on: MV-4-11 cell line with FLT3 ITD/ITD isogenic mutation; test: MV-4-11 cell line xenografted mouse model, anti-tumor efficacy; type: in vivo, BALB/c Nude mouse; details: MV-4-11 xenograft, Compound A 3 mg/kg; for Maximum inhibition (%): oral once a day for 21 days, combination 3 + 100 mg/kg, largest tumor inhibition rate during observation
Description: In a mouse model xenografted with the cell line MV-4-11 with FLT3 ITD/ITD isogenic mutation (ATCC, CRL-9591), a comparative or combination efficacy test of the FLT3 inhibitor, 5-chloro-N-(3-cyclopropyl-5-(((3R,5S)-3,5-dimethylpiperazin-1-yl) methyl) phenyl)-4-(6-methyl-1H-indol-3-yl) pyrimidin-2-amine (hereinafter ‘Compound A’), and the Bcl-2 inhibitor, 4-[4-[[2-(4-chlorophenyl)-4,4-dimethylcyclohexen-1-yl]methyl] piperazin-1-yl]-N-[3-nitro-4-(oxan-4-ylmethylamino) phenyl] sulfonyl-2-(1H-pyrrolo [2,3-b]pyridin-5-yloxy) benzamide (hereinafter ‘venetoclax’), was conducted.
MV-4-11 cell lines were purchased from the American Type Culture Collection (ATCC). To build a mouse model xenografted with this MV-4-11 cell line, a 5-week-old male BALB/c Nude mouse (hereinafter referred to as “Nude Mouse”) was purchased from Charles River Laboratories Japan, Inc.
The MV-4-11 cell line was injected subcutaneously in a nude mouse with 5×10^6 cells/0.15 mL/mouse, and was allowed to grow. Mice with a tumor volume of 80 to 300 mm^3 (length×width^2×0.5) were selected on the day of administration, separated into 4 groups (7/group) and administered for a total of 21 days so that the average tumor volume in each group was almost the same.
The control group was administered DMSO/PEG400/DW (ratio=0.5/2/7.5, volume/volume/volume) mixed solution orally once a day, and the compound A group was administered 3 mg/kg/day once a day. It was orally administered, and the venetoclax group was orally administered once a day at a dose of 100 mg/kg/day. In the combined group, compound A was administered orally once a day at a dose of 3 mg/kg/day, and venetoclax was administered orally once a day at a dose of 100 mg/kg/day. Each group was administered individual medications for 21 days.
The maximum inhibition rate (%) and the change in weight loss (%) of mice were calculated, and the experimental results are shown in Table 1. The Inhibition rate (IR) was obtained from “(1−mean of individual relative tumor volume in the drug treatment group/average of individual relative tumor volume in the control group)×100%”, and the maximum inhibition rate was the largest inhibition rate during the observation period. The change in weight loss (%) was calculated from “(1−weight on the day of measurement/weight on the start day of administration)×100%”. The relative tumor volume was calculated from “the tumor volume/initial tumor volume×100% at the date of measurement”.

[2] = tested on: MOLM-13 cell line carrying the FLT3-WT/ITD heterogeneous mutation; test: MOLM-13 cell line xenografted mouse model, anti-tumor efficacy; type: in vivo, nude mice; details: MOLM-13 xenograft, Compound A 10 mg/kg, venetoclax 100 mg/kg; for Maximum inhibition (%): oral once a day for 14 days, combination 10 + 100 mg/kg, largest tumor inhibition rate during observation
Procedure: In a mouse model xenografted with the MOLM-13 (DSMZ no. ACC 554) cell line carrying the FLT3-WT/ITD heterogeneous mutation, a comparative or combination efficacy test of the FLT3 inhibitor, 5-chloro-N-(3-cyclopropyl-5-(((3R,5S)-3,5-dimethylpiperazine-1-yl) methyl) phenyl)-4-(6-methyl-1H-indol-3-yl) pyrimidin-2-amine (hereinafter ‘Compound A’) and the Bcl-2 inhibitor, venetoclax was conducted.
The MOLM-13 cell line was purchased from Deutsche Sammlung von Mikroorganismen und Zellkulturen (DSMZ) GmbH. To construct a mouse model xenografted with this MOLM-13 cell line, 5-week-old male nude mice were purchased from Charles River Laboratories Japan, Inc.
The MOLM-13 cell line was injected subcutaneously into nude mice at 5×10^6 cells/0.2 mL/mouse, and was allowed to grow. Mice having a tumor volume of 55 to 415 mm^3 (length×width^2×0.5) were selected on the day of administration, and after having been divided into 4 groups (3 mice each in the control group and the compound A group, 4 mice each in the venetoclax group and the compound A and venetoclax combination group) so that the average tumor volume of each group was similar, the control group was administered for 11 days, and each drug administration group received individual medications for 14 days. The control group was measured for 12 days, and each drug administration group was measured for 15 days.
The control group received an oral administration of a mixed solution of DMSO/PEG400/DW (ratio=0.5/2/7.5, volume/volume/volume) once a day, the compound A group received an oral administration once a day at a dose of 10 mg/kg/day, and the venetoclax group received an oral administration once a day at a dose of 100 mg/kg/day. […]
The maximum inhibition rate (%) and the change in weight loss (%) of mice were calculated, and the experimental results are shown in Table 2. […] The change in weight loss (%) was calculated from “(1−body weight on the measurement day/weight on the start date of administration)×100%”. Relative tumor volume was calculated from “tumor volume on measurement day/initial tumor volume×100%”.

[3] = tested on: relapsed or refractory AML; test: Open-label first-in-human dose escalation, exploration and expansion study; type: in vivo; details: patients with relapsed or refractory AML, single agent, 80 mg dose daily oral
Description: This study is an open-label, first-in-human, dose escalation, exploration, and expansion study of Compound A as a single agent and in combination with venetoclax in patients with relapsed or refractory AML. Cycle 1 in dose escalation is defined as 30 days, all other cycles lasting at least 28 days. Patients will receive oral Compound A at QD on a continuous basis, with the exception of Cycle 1 Day 2 in Part A. The study treatment can continue until a discontinuation criterion is met.
The initial dose level of Compound A as a single agent was 20 mg daily and the decision to dose escalate to the next dose level is made based on the assessment of safety variables including moderate toxicity (MT, a Grade 2 AE judged by the investigator to be related to study drug (except for hematologic toxicities)) or dose limiting toxicity (DLT). This study includes 3 parts: Part A: Dose Escalation; Part B: Dose Exploration; and Part C: Dose Expansion.
Part A includes the initial dose escalation cohorts. Provisional dose escalation scheme with the planned doses of Compound A are as follows: 20 mg, 30 mg, 40 mg, 60 mg, 80 mg, 120 mg, 160 mg, 200 mg, or 240 mg. Patients are treated daily in 28-day cycles except for the Cycle 1 (30 days). The DLT observation period is during Cycle 1 starting with the first dose on Day 1. […]

Structure (SMILES)	complete regression (mice out of 7) ([1]; 9th day of administration, venetoclax 100 mg/kg)	partial regression (mice out of 7) ([1]; 16th day of administration)	Maximum inhibition (%) ([1]; venetoclax 100 mg/kg)	Maximum inhibition (%) [2]	complete regression (mice per group) ([2]; combined group on 7th day of administration)	clinical response (complete responses) [3]
Cc1ccc2c(-c3nc(Nc4cc(CN5C[C@@H](C)N[C@@H](C)C5)cc(C5CC5)c4)ncc3Cl)c[nH]c2c1 [Compound A, 5-chloro-N-(3-cyclopropyl-5-(((3R,5S)-3,5-dimethylpiperazin-1-yl)methyl)phenyl)-4-(6-methyl-1H-indol-3-yl) pyrimidin-2-amine]	not observed	1 out of 7	54.0%	68.1%	not observed	several complete responses
CC1(C)CCC(CN2CCN(c3ccc(C(=O)NS(=O)(=O)c4ccc(NCC5CCOCC5)c([N+](=O)[O-])c4)c(Oc4cnc5[nH]ccc5c4)c3)CC2)=C(c2ccc(Cl)cc2)C1 [Venetoclax, 4-[4-[[2-(4-chlorophenyl)-4,4-dimethylcyclohexen-1-yl]methyl]piperazin-1-yl]-N-[3-nitro-4-(oxan-4-ylmethylamino)phenyl] sulfonyl-2-(1H-pyrrolo [2,3-b]pyridin-5-yloxy) benzamide, reference compound]			76.1%	56.3%		
